Experimental data reported in article PMC8957573 (Journal of Natural Products, 2022).

Biological target: T1, TAK1 (Homo sapiens, UniProt O43318)
T1 sequence (O43318 1-303 limits assumed): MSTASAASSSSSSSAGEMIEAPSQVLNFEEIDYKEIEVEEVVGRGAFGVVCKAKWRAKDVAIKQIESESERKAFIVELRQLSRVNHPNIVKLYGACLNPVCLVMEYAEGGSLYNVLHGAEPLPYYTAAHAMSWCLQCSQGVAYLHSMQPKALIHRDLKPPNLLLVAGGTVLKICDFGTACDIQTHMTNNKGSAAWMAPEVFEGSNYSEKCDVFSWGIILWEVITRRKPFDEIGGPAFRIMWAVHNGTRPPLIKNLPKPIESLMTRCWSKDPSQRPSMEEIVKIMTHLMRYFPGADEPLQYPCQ
Test: TAK1 inhibition assay
Type: biochemical
Conditions: cis-enone RALs

Inhibitory activity against TAK1 (in words): inhibit TAK1
SMILES: COc1cc(O)c2c(c1)[C@H]1O[C@@H]1C[C@H](O)[C@H](O)C(=O)/C=C\C[C@H](C)OC2=O [Hypothemycin (1), Hypothemycin]
